Values joined by “and” are separate entries in the source; they are usually repeats but may differ in a detail not shown here. Equal values may be shown once. “Also recorded” adds a separate entry of the source. Read-outs that look alike come from different tables or passages of the source.

In general, EC50 refers to the concentration giving half of the maximal effect. The IC50 is the midpoint of a concentration-inhibition curve.

Series [1] in a line: in vitro. To be noted: human.
In series [2] the test system is EBOV. The series is described as follows: microbe, parasite or virus in culture. Format: cell-based, Ebola virus.
Series [3] relates to HeLa cells. To be noted: read-out: HeLa CC50; n=2.
In series [4] the test system is EBOV. To be noted: in vivo, 30 mg/kg/day; cited from earlier work.
The test system of series [5] is VP35-nucleoprotein interface. Particulars: cited from earlier work.
Where [6] appears, read: Zaire ebolavirus, HeLa, 24 h, read-out: EC50 Activity against EBOV, n=4.
Setting [7] is: read-out: EC50 Activity against EBOV, n=4.

As to `CC(=O)OCc1ccccc1` [Benzyl acetate], the CC50 in series [1] was more than 50 µM. The figures for the concentration for a half-maximal effect (EC50) in series [2] (setting [6]) and in series [2] (setting [7]) were 10 µM and 10.7 ± 5 µM, respectively.

As to `C=CCc1ccc(O)c(OC)c1` [Eugenol], the CC50 in series [1] is more than 50 µM. In addition, the EC50 in series [2] (setting [6]) came to 1.3 ± 0.5 µM.

Turning to `CC(C)[C@@H]1CC[C@@H](C)C[C@H]1O` [L- menthol], the “EC50 Activity against EBOV” value in series [2] (n=4) was “no appreciable activity; also recorded: inactive”. Same read-out and setting: the result for `NC(=O)c1cccnc1` [Nicotinamide, reference compound] reads “inactive”. Take `O=C(O)c1cccnc1` [Nicotinic acid, reference compound]: in series [2], the “EC50 Activity against EBOV” value is “inactive”.

Compound `COc1ccc(C=O)cc1` [P-anisaldehyde] yielded a CC50 in series [1] of more than 50 µM. Besides, the results for the EC50 in series [2] (setting [6]) and in series [2] (setting [7]) were 2.8 µM and 2.9 ± 0.6 µM, respectively.

Consider `CC(=O)OCCc1ccccc1` [Phenethyl acetate], for which, in series [2] (setting [7]), the EC50 is 10 µM and 10.4 µM. Moreover, the CC50 in series [3] is more than 50 µM.

As for `CCN(CC)CCOc1ccc2c(c1)C(=O)c1cc(OCCN(CC)CC)ccc1-2` [tilorone], the “efficacy in a mouse model of EBOV infection” value in series [4] is listed as 100%. As to `Cc1ccc(C(=O)c2cc(O)c(O)c([N+](=O)[O-])c2)cc1` [tolcapone], the half-inhibitory concentration (IC50) in series [5] is 2 µM.
